This note sets out measurements from patent publication US11274115B2, “Imidazoquinoline derivatives and their use in therapy” (GLAXOSMITHKLINE BIOLOGICALS SA, priority 2016, dated 2022).

Where two headings read alike, the source gives them in different places.

What all share (format): cell-based
One test has as its target T1, human TLR8 (Homo sapiens, UniProt Q9NR97).
T1 construct: host or cells: HEK293
T1 sequence (Q9NR97 27-1041): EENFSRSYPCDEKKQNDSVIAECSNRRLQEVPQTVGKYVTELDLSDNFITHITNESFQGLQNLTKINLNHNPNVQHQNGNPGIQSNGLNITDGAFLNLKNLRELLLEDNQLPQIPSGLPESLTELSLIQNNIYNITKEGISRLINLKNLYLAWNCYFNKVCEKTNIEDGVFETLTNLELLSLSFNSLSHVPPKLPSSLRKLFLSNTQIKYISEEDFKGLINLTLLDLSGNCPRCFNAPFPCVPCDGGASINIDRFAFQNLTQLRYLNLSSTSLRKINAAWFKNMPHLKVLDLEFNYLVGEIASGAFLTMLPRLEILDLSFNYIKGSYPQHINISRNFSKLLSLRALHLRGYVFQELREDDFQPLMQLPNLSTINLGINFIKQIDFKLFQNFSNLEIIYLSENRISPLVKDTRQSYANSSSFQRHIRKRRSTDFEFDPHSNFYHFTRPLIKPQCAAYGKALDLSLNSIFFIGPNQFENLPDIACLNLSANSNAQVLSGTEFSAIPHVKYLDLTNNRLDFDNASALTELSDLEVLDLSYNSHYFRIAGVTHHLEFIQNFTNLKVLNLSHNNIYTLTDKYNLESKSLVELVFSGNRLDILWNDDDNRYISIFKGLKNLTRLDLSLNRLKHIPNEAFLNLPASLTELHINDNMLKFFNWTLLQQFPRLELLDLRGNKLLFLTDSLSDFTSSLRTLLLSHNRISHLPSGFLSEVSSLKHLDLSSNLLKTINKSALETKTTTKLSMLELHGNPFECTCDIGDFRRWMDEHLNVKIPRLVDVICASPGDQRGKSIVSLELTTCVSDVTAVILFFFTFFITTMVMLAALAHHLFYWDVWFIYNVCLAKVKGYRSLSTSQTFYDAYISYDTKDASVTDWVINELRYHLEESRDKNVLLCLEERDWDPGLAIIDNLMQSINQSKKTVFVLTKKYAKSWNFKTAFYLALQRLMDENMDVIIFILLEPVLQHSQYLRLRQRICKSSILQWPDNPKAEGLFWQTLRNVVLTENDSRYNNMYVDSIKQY
Nature of the test: hTLR8 agonist reporter assay in HEK293 cells (NFκB-SEAP). The conditions noted are these: for EC50: read-out: hTLR8 ED50; for hTLR8 agonist activity, in words: Table 3, FIG. 6. The procedure: (§1) Assay for hTLR7 and hTLR8 Agonist Activity in HEK-293 Cells
(§2) Determination of TLR agonist activity was performed using the HEK293 […]. This assay measures TLR7 and TLR8 selectivity and potency of the compounds tested. HEK293 cells expressing human TLR7 or TLR8 and NFκB responsive Secreted Embryonic Alkaline Phosphatase (SEAP) reporter gene were obtained from InvivoGen (San Diego, Calif.). These cells were maintained in culture media of Dulbecco's Modified Eagle Medium (DMEM) (Invitrogen, Grand Island, N.Y.), 10% Fetal Bovine Serum (FBS) (Sigma, St. Louis, Mo.) and selection antibiotics (Invitrogen, and Invivogen). HEK293 stably transfected with human TLR7 (hTLR7) or human TLR8 (hTLR8) were stimulated for 24 h with aqueous formulations of test compounds and culture supernatants were analyzed for NFκB activation using the colorimetric SEAP detection kit QuantBlue (InvivoGen).

The next test concerns the target T2, human TLR7 (Homo sapiens, UniProt Q9NYK1).
T2 construct: host or cells: HEK293
T2 sequence (Q9NYK1 27-1049): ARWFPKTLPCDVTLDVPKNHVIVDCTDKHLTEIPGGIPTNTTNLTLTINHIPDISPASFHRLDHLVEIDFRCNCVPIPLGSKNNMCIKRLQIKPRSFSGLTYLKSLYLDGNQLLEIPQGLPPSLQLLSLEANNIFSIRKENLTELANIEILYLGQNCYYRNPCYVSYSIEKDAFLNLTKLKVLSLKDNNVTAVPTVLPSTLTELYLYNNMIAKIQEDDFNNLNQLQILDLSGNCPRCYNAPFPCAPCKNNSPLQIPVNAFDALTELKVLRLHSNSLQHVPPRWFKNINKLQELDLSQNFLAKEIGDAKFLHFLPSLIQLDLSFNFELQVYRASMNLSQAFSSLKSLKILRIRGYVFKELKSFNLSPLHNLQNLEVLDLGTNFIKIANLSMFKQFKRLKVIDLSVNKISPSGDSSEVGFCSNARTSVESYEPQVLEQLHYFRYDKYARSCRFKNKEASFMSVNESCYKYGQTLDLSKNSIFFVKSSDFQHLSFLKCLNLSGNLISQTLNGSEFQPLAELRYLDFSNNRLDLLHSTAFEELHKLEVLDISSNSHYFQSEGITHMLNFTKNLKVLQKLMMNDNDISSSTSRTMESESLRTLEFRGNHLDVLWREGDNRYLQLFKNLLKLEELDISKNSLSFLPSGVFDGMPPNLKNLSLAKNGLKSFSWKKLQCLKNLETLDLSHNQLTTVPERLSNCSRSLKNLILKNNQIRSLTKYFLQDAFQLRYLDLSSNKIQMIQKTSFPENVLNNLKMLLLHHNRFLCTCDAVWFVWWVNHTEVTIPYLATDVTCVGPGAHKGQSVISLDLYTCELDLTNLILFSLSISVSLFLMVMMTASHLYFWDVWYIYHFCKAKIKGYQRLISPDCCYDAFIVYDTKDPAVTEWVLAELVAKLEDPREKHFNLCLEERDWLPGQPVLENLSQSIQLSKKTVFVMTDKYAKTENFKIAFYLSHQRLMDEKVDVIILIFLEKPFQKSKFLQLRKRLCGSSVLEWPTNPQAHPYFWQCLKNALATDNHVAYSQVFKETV
Nature of the test: hTLR7 agonist reporter assay in HEK293 cells (NFκB-SEAP). The following applies: for hTLR7 agonist activity, in words: Table 3, FIG. 5; for EC50: read-out: hTLR7 ED50; for hTLR7/8 ratio: hTLR7 ED50 over hTLR8 ED50. The procedure: as §1, §2
On the technique in general: Reporter assays use an easily measured gene product as a stand-in for the process of interest.

Test [1] has as its system human peripheral blood mononuclear cells (hPBMCs). Nature of the test: TNF-α induction in hPBMCs. The conditions noted are these: 24 h. The procedure: (§3) Assays to Measure Cytokine Induction
(§4) Test compounds were evaluated for cytokine induction in human peripheral blood mononuclear cells (hPBMCs).
(§5) Primary human PBMCs were isolated from fresh blood from healthy donors via Ficoll gradient separation and plated at 0.5×10^6 cells/well in 96-well tissue culture plates (RPMI-1640 plus 10% FBS). hPBMCs were maintained with RPMI-1640 culture media (Invitrogen, Grand Island, N.Y.), antibiotics (Invitrogen) and 10% FBS (Sigma).
(§6) Incubation and Assays for IFN-γ, IFN-α and TNF-α
(§7) hPBMCs were stimulated for 24 h with aqueous formulations of test compounds. Culture supernatants were analyzed for TNF-α and IFN-γ induction using multiplex kits (FluoroKine multiplex kits from R&D Systems, Minneapolis, Minn.) and for IFN-α induction using human IFN-α VeriKine ELISA kit (Pestka Biomedical Laboratories, Inc., Piscataway, N.J.).

For test [2] the test system is unchanged. Nature of the test: IFN-α induction in hPBMCs. The following applies: 24 h. The procedure:
as §3, §4, §5, §6, §7

Test [3] shares this test system. Nature of the test: IFN-γ induction in hPBMCs. The following applies: 24 h. The procedure:
as §3, §4, §5, §6, §7

Where [4] appears, read: Table 2, FIG. 4, another occasion, * = only very low levels of NFKB activation were detected.
The mark [5] stands for this setting: Table 3, FIG. 6, another occasion, * = only very low levels of NFKB activation were detected.
The mark [6] stands for this setting: Table 3, FIG. 5, another occasion, * = only very low levels of NFKB activation were detected.
[7] abbreviates: Table 1, FIG. 2, 24 h stimulation, aqueous formulations.
The mark [8] stands for this setting: Table 1, FIG. 1, 24 h stimulation, aqueous formulations.
Where [9] appears, read: Table 2, FIG. 3, another occasion, * = only very low levels of NFKB activation were detected.
[10] abbreviates: Table 4, FIG. 8, another occasion.
[11] abbreviates: Table 4, FIG. 7, another occasion.

In the case of `CCCCc1nc2c(N)nc3cc(OCCOP(=O)(O)OCCOCCOCCO[C@H]4CC[C@@]5(C)C(=CC[C@H]6[C@@H]7CC[C@H]([C@H](C)CCCC(C)C)[C@@]7(C)CC[C@@H]65)C4)ccc3c2n1CCO` [Example 4], the EC50 on human TLR8 (setting [4]) was 31.9 µM.
`CCCCCCCC/C=C\CCCCCCCC(=O)OC[C@H](COP(=O)(O)OCCOCCOCCOc1ccc2c(c1)nc(N)c1nc(CCCC)n(CCO)c12)OC(=O)CCCCCCC/C=C\CCCCCCCC` [Example 6]: at human TLR8, the “hTLR8 agonist activity, in words” value is given as “reasonably potent agonist of hTLR8”. In addition, the EC50 amounted to 5.8 µM on human TLR8 (setting [5]) and 8.7 µM at human TLR7 (setting [6]). Moreover, the “hTLR7 agonist activity, in words” value at human TLR7 was “very weak agonist of hTLR7”. Besides, the hTLR7/8 ratio at human TLR7 (Table 3) was determined as 1.5. The “TNF-α induction, in words” value in test [1] (FIG. 15, another occasion) is “effective but less potent”. In test [2] (FIG. 14, another occasion), the “IFN-α induction, in words” value is reported as “potent, but less so than Example 1”.
Take `CCCCc1nc2c(N)nc3cc(OCCO)ccc3c2n1CCO` [Comparative Example 3]: the EC50 at human TLR8 (setting [7]) came to 0.1 µM; on human TLR8 (setting [4]), 0.8 µM; at human TLR8 (setting [5]) it was 1.1 µM; at human TLR7 (setting [8]), 1.56 µM; on human TLR7 (setting [9]) it was 2.4 µM; on human TLR7 (setting [6]) it was 2.2 µM. Also, the hTLR7/8 ratio at human TLR7 (Table 1) is reported as 15.5; on human TLR7 (Table 2) it was 2.9; at human TLR7 (Table 3), 1.9. For the same molecule, the “TNF-α induction, in words” value in test [1] (FIG. 13) is on record as “potent at inducing TNF-α”; in test [1] (FIG. 15, another occasion), “effective at inducing TNF-α”. Further, the “IFN-α induction, in words” value in test [2] (FIG. 10) is “equipotent at inducing IFN-α and these were more potent than Comparative Example 1 and Comparative Example 2 in this assay at a lower dose”; in test [2] (FIG. 14, another occasion), “Weaker effects”.
For the molecule `CCCCc1nc2c(N)nc3cc(OCCCCO)ccc3c2n1CCO` [Comparative Example 4], the “hTLR8 agonist activity, in words” value at human TLR8 was “good agonist of hTLR7 and hTLR8”. Besides, the EC50 was determined as 2.2 µM on human TLR8 (setting [5]) and 1.6 µM at human TLR7 (setting [6]). Besides, at human TLR7, the “hTLR7 agonist activity, in words” value was “good agonist of hTLR7 and hTLR8”. Also, the hTLR7/8 ratio at human TLR7 (Table 3) was 0.7. Further, in test [1] (FIG. 15, another occasion), the “TNF-α induction, in words” value is listed as “effective at inducing TNF-α”. For the same molecule, in test [2] (FIG. 14, another occasion), the “IFN-α induction, in words” value is on record as “did not induce IFN-α”.
Take `CCCCc1nc2c(N)nc3cc(OCCOCCOCCO)ccc3c2n1CCO` [Comparative Example 5]: on human TLR8, the “hTLR8 agonist activity, in words” value was “quite weak agonist of hTLR7 and hTLR8”. For the same molecule, the EC50 is 16.3 µM at human TLR8 (setting [5]) and 13.2 µM on human TLR7 (setting [6]). Besides, the “hTLR7 agonist activity, in words” value on human TLR7 was “quite weak agonist of hTLR7 and hTLR8”. Further, the hTLR7/8 ratio at human TLR7 (Table 3) came out at 0.8. In test [1] (FIG. 15, another occasion), the “TNF-α induction, in words” value is listed as “effective but less potent”. Also, the “IFN-α induction, in words” value in test [2] (FIG. 14, another occasion) is “did not induce IFN-α”.
On to `CCCCCCCC/C=C\CCCCCCCC(=O)OC[C@H](COP(=O)(O)OCCn1c(CCCC)nc2c(N)nc3ccccc3c21)OC(=O)CCCCCCC/C=C\CCCCCCCC` [Comparative Example 2, reference compound], for which the “IFN-γ induction, in words” value is listed as “did not induce any IFN-γ” in test [3] (FIG. 9) and “did not induce IFN-γ” in test [3] (FIG. 11, another occasion). The EC50 at human TLR8 (setting [7]) worked out at 26 µM; on human TLR8 (setting [4]) it was 39.2 µM; at human TLR7 (setting [8]), 34.6 µM; at human TLR7 (setting [9]), 55.4 µM. Besides, the hTLR7/8 ratio on human TLR7 (Table 1) is given as 1.3; at human TLR7 (Table 2) it was 1.4. In test [1] (FIG. 13), the “TNF-α induction, in words” value is recorded as “not significantly effective at inducing TNF-α”.
For `CCCCCCCC/C=C\CCCCCCCC(=O)OC[C@H](COP(=O)(O)OCCCCOc1ccc2c(c1)nc(N)c1nc(CCCC)n(CCO)c12)OC(=O)CCCCCCC/C=C\CCCCCCCC` [Example 5], at human TLR8, the “hTLR8 agonist activity, in words” value is on record as “very weak agonist of hTLR7 or hTLR8”. Besides, the figures for the EC50 at human TLR8 (setting [5]) and on human TLR7 (setting [6]) were 6.6 µM and 10.5 µM, respectively. For the same molecule, the “hTLR7 agonist activity, in words” value on human TLR7 is “very weak agonist of hTLR7 or hTLR8”. Moreover, the hTLR7/8 ratio at human TLR7 (Table 3) is 1.6. Further, the “TNF-α induction, in words” value in test [1] (FIG. 15, another occasion) is “very weak effect”. Moreover, the “IFN-α induction, in words” value in test [2] (FIG. 14, another occasion) is given as “potent but at higher dose”.
For the molecule `CCCCCCCCCCCCCCCC(=O)OC[C@H](COCCOCCOCCOP(=O)(O)OCCOc1ccc2c(c1)nc(N)c1nc(CCCC)n(CCO)c12)OC(=O)CCCCCCCCCCCCCCC` [Example 2], the EC50 on human TLR8 (setting [10]) amounted to 0.81 µM; on human TLR7 (setting [11]), 6.1 µM.
Regarding `CCCCCCCCCCCCCCCC(=O)OC[C@H](COP(=O)(O)OCCOc1ccc2c(c1)nc(N)c1nc(CCCC)n(CCO)c12)OC(=O)CCCCCCCCCCCCCCC` [Example 7], the EC50 at human TLR8 (setting [10]) worked out at 3.81 µM; at human TLR7 (setting [11]) it was 14.6 µM.
